Broadly, the IC50 is the concentration that gives 50% inhibition. Low values mean inhibition by little substance, high ones a need for much substance.

Consider four compounds from ChEMBL document CHEMBL1122680, “A photoaffinity reagent to label the opiate receptors of guinea pig ileum and mouse vas deferens” (J Med Chem, 1984).

Holding throughout (type): functional
Assay [1] is filed under the species Cavia porcellus. Nature of the assay: Inhibitory effect on electrically induced contraction of guinea pig ileum (GPI).
The species entered for assay [2] is Mus musculus. Nature of the assay: Inhibitory effect on electrically induced contraction of Mouse vas deferens (MVD).
The species entered for assay [3] is Rattus norvegicus. Nature of the assay: Inhibitory effect on the binding of 2 nM [3H]naloxone to rat brain membrane.
Assay [4] is described as follows: Relative potency calculated from the ratio of IC50 of [Leu]-enkephalin to that of the compound.

SMILES strings stand for the structures.

Turning to `CC(C)C[C@H](NC(=O)[C@H](Cc1ccccc1)NC(=O)CNC(=O)[C@H](C)NC(=O)[C@@H](N)Cc1ccc(O)cc1)C(=O)NCCNc1ccc(N=[N+]=[N-])cc1[N+](=O)[O-]`, the concentration for half-maximal inhibition (IC50) stood at 4.35 nM in assay [1], 2.59 nM in assay [2] and 2.52 nM in assay [3]. In addition, in assay [4], the Potency is 46.8.
In assay [3], `C=CCN1CC[C@]23c4c5ccc(O)c4O[C@H]2C(=O)CC[C@@]3(O)[C@H]1C5` [NALOXONE] registered an IC50 of 6.39 nM. Moreover, the Potency in assay [4] is 18.5.
For the compound `CC(C)C[C@H](NC(=O)[C@H](Cc1ccccc1)NC(=O)CNC(=O)[C@@H](C)NC(=O)[C@@H](N)Cc1ccc(O)cc1)C(N)=O`, the IC50 is 5.23 nM in assay [1], 2.88 nM in assay [2] and 30 nM in assay [3]. Also, the Potency in assay [4] was 3.9.
The corresponding values for `CC(C)C[C@H](NC(=O)[C@H](Cc1ccccc1)NC(=O)CNC(=O)CNC(=O)[C@@H](N)Cc1ccc(O)cc1)C(N)=O` [[LEU5]ENKEPHALIN] are 120 nM, 17 nM, 118 nM and 1.
